Test results as given in US8546380B2, “Aminodihydrothiazine derivatives” (Shionogi & Co., Ltd., priority 2005, dated 2013).
Where two headings read alike, the source gives them in different places.

Key:
[1] = molecular target: recombinant human BACE-1 protein (Homo sapiens (Human), UniProt P56817); assay: Measurement of Inhibition of β-Secretase Activity; type: biochemical
Outline: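 Recombinant human BACE-1 incubated with compound and Eu-cryptate-labelled biotinylated peptide substrate 3 h at 30° C in 50 mM sodium acetate pH 5.0, 0.008% Triton X-100. Streptavidin-XL665 in KF-containing phosphate buffer pH 7.0 then added, 1 h at 30° C, for time-resolved FRET read-out.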

[2] = fluorescence-quenched peptide substrate 18 nM, BACE-1 7.4 nM, 3 h at 30° C., pH5.0, read-out: IC50 value
[3] = recombinant human BACE-1 protein, 3 h at 30° C., pH5.0, read-out: IC50 value

Sequence of recombinant human BACE-1 protein (P56817 46-501): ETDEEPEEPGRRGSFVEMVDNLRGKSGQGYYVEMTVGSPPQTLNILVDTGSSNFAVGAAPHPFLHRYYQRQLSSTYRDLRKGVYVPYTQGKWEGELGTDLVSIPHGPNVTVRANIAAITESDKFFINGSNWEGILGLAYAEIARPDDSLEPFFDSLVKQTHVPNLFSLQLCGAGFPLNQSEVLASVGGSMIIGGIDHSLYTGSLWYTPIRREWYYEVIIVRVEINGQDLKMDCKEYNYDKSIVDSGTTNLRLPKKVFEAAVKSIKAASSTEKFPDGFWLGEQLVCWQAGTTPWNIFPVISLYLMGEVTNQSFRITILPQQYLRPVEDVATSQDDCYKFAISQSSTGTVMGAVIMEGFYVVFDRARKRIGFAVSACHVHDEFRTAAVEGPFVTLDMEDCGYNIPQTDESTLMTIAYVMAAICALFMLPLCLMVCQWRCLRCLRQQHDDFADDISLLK

SMILES	IC50 [1, 2] [µM]	melting point	IC50 [1, 3] [µM]	IC50 [1] [µM]
CC1(c2cc(NC(=O)c3n[nH]c4ccccc34)ccc2F)CCSC(N)=N1 (stereo not shown) [Compound 241]	< 100	187 to 190 °C	–	–
CC1(c2cc(N)cc(Br)c2)CCSC(N)=N1.Cl.Cl (stereo not shown) [Compound 588]	< 100	155 to 156 °C	–	–
CC1(c2ccc3c(c2)NC(=O)CO3)CCSC(N)=N1 (stereo not shown) [Compound 38]	< 100	240 to 244 °C (dec.)	–	–
COc1cc(NC(=O)c2ccc(Cl)cn2)cc(C2(C)CCSC(N)=N2)c1.Cl (stereo not shown) [Compound 1035]	–	247 to 251 °C (dec.)	0.174	–
CC(C)Oc1cc(NC(=O)c2ccc(Cl)cn2)cc(C2(C)CCSC(N)=N2)c1.Cl (stereo not shown) [Compound 1135]	–	255 to 260 °C (dec.)	2.3	–
CC1(c2csc3ccccc23)CCSC(N)=N1 (stereo not shown) [Compound 42]	< 100	187 to 188 °C	–	–
CC1(c2cccc(NC(=O)c3ccc(Cl)cn3)c2Cl)CCSC(N)=N1 (stereo not shown) [Compound 813]	< 100	204 to 205 °C	–	–
CC1(c2cc(NC(=O)c3ccc(C(F)(F)F)cn3)ccc2F)CCSC(N)=N1 (stereo not shown) [Compound 396]	< 100	211 to 213 °C	–	–
COCc1cc(NC(=O)c2ccc(C)cc2)cc(C2(C)CCSC(N)=N2)c1 (stereo not shown) [Compound 465]	–	194.6 °C	3.24	–
CC1(c2cc(Br)cc(NC(=O)c3ccc(Cl)cn3)c2)CCSC(N)=N1.Cl (stereo not shown) [Compound 165]	–	246 to 248 °C	0.0394	–
CC1(c2cccc(OCCOc3ccc(Cl)cc3)c2)CCSC(N)=N1.Cl (stereo not shown) [Compound 121]	< 100	166 to 167 °C	–	–
CC1(c2ccc(C(=O)Nc3ccccc3)s2)CCSC(N)=N1 (stereo not shown) [Compound 483]	< 100	224 to 227 °C	–	–
CC1(c2ccc3c(c2)OCCO3)CCSC(N)=N1 (stereo not shown) [Compound 18]	< 100	181 to 183 °C	–	–
CC1(c2cc(F)cc(NC(=O)c3ccc(C(F)(F)F)cn3)c2)CCSC(N)=N1 (stereo not shown) [Compound 178]	< 100	224 to 225 °C	–	–
CC1(c2cccc(CCC(=O)Nc3ccc(Cl)cn3)c2)CCSC(N)=N1.Cl.Cl (stereo not shown) [Compound 657]	< 100	199 to 203 °C	–	–
CC1(c2cccc(NC(=O)c3ccc(N4CCOCC4)cn3)c2)CCSC(N)=N1 (stereo not shown) [Compound 1131]	< 100	189 to 191 °C	–	–
CC1(c2cccc(/C(Cl)=C/C(=O)Nc3ccc(Cl)cn3)c2)CCSC(N)=N1 (stereo not shown) [Compound 1142]	< 100	182 to 186 °C (dec.)	–	–
Cc1cc(C(=O)Nc2cc(Br)cc(C3(C)CCSC(N)=N3)c2)c(C)o1 (stereo not shown) [Compound 731]	–	91 to 94 °C	0.278	–
CC1(c2ccc3c(c2)CCCC3)CCSC(N)=N1 (stereo not shown) [Compound 6]	< 100	147 to 148 °C	–	–
CC1(c2cc(NC(=O)c3ccc(Cl)cn3)cc(C(F)(F)F)c2)CCSC(N)=N1 (stereo not shown) [Compound 964]	–	185 to 187 °C	0.264	–
CC1(c2cccc(NC(=O)c3ccc4ccccc4n3)c2)CCSC(N)=N1 (stereo not shown) [Compound 935]	< 100	161 to 165 °C	–	–
CC1(c2cc(NC(=O)c3ccc(C(F)(F)F)cn3)cc(C(F)(F)F)c2)CCSC(N)=N1 (stereo not shown) [Compound 897]	–	212 to 214 °C	0.816	–

SMILES	IC50 [1, 2] [µM]	melting point	IC50 [1, 3] [µM]	IC50 [1] [µM]
CC1(c2ccc(F)c(OCCCc3ccccc3)c2)CCSC(N)=N1.Cl (stereo not shown) [Compound 1069]	< 100	194 to 196 °C	–	–
CCOC(=O)CCc1cccc(C2(C)CCSC(N)=N2)c1.Cl (stereo not shown) [Compound 720]	< 100	133 to 138 °C	–	–
CC1(c2cccc(OCCCc3cccnc3)c2)CCSC(N)=N1 (stereo not shown) [Compound 282]	< 100	146 to 147 °C	–	–
CC1(c2ccc(C(=O)Nc3ccc(Cl)cn3)s2)CCSC(N)=N1 (stereo not shown) [Compound 500]	< 100	181 to 184 °C	–	–
Cc1cc(C(=O)Nc2cc(Br)cc(C3(C)CCSC(N)=N3)c2)c(C)o1.Cl (stereo not shown) [Compound 436]	–	254 to 256 °C	0.16	–
COc1ccc(NC(=O)/C=C(\Cl)c2cccc(C3(C)CCSC(N)=N3)c2)cc1 (stereo not shown) [Compound 1114]	< 100	121 to 124 °C	–	–
CC1(c2cccc(OCCCc3ccccc3)c2)CCSC(N)=N1 (stereo not shown) [Compound 1010]	–	90 to 91 °C	2.8	–
COc1ccc(C(=O)Nc2cccc(C3(C)CCSC(N)=N3)c2)nn1 (stereo not shown) [Compound 405]	< 100	192 to 194 °C	–	–
CC1(c2ccc(C(=O)NCc3ccccc3)s2)CCSC(N)=N1 (stereo not shown) [Compound 1124]	< 100	169 to 172 °C	–	–
Cc1ccccc1C1(C)CCSC(N)=N1 (stereo not shown) [Compound 756]	< 100	110 to 111 °C	–	–
CC1(c2cccc(NC(=O)c3ncc(Cl)cc3Cl)c2)CCSC(N)=N1.Cl (stereo not shown) [Compound 127]	–	280 to 285 °C	0.054	–
CC1(c2cccc(/C=N/O)c2)CCSC(N)=N1 (stereo not shown) [Compound 611]	< 100	200 to 202 °C	–	–
CC1(c2cccc(/C=N/OCc3ccncc3)c2)CCSC(N)=N1 (stereo not shown) [Compound 456]	< 100	147 to 149 °C	–	–
CC1(c2cccc(NCc3ccncc3)c2)CCSC(N)=N1 (stereo not shown) [Compound 728]	< 100	179 to 182 °C	–	–
Cc1ccc(C(=O)Nc2cccc(C3(C)CCSC(N)=N3)c2)nc1 (stereo not shown) [Compound 528]	< 100	173 to 174 °C	–	–
CC1(c2cc(NC(=O)c3ncc(Cl)cn3)ccc2F)CCSC(N)=N1 (stereo not shown) [Compound 204]	< 100	205 to 208 °C	–	–
Cc1cnc(C(=O)Nc2ccc(F)c(C3(C)CCSC(N)=N3)c2)cn1 (stereo not shown) [Compound 359]	< 100	212 to 214 °C	–	–
CC1(c2cccc(NC(=O)c3ccc(C(F)(F)F)cn3)c2)CCSC(N)=N1.Cl (stereo not shown) [Compound 1244]	–	268 to 288 °C	0.13	–
Cl.NC1=NC(c2cccc(NC(=O)c3ccc(Cl)cn3)c2)CCS1 (stereo not shown) [Compound 740]	–	250 °C (dec.)	0.505	–
CC1(c2cccc(NCc3ccccn3)c2)CCSC(N)=N1 (stereo not shown) [Compound 333]	< 100	154 to 158 °C	–	–
Cc1cnc(C(=O)Nc2cccc(C3(C)CCSC(N)=N3)c2)cn1 (stereo not shown) [Compound 444]	–	214 to 215 °C	–	< 100
CC(=O)c1ccc(C(=O)Nc2cccc(C3(C)CCSC(N)=N3)c2)nc1 (stereo not shown) [Compound 139]	< 100	287 to 290 °C	–	–

SMILES	IC50 [1, 2] [µM]	melting point	IC50 [1, 3] [µM]	IC50 [1] [µM]
CC1(c2cccc(COc3ccc(Cl)cc3)c2)CCSC(N)=N1 (stereo not shown) [Compound 1028]	< 100	105 to 106 °C	–	–
CC1(c2cccc(/C=C/C(=O)Nc3ccccc3)c2)CCSC(N)=N1 (stereo not shown) [Compound 1109]	< 100	134 to 140 °C	–	–
CC1(c2cccc(NC(=O)c3ccc(C(F)(F)F)cc3)c2)CCSC(N)=N1 (stereo not shown) [Compound 26]	–	182 to 184 °C	1.98	–
CC1(c2ccc(Oc3ccc(Br)cc3)cc2)CCSC(N)=N1 (stereo not shown) [Compound 735]	< 100	166 to 168 °C	–	–
CC1(c2ccc(F)c(C(=O)Nc3ccc(Cl)cn3)c2)CCSC(N)=N1 (stereo not shown) [Compound 1125]	< 100	195 to 198 °C	–	–
CC1(c2ccc(Oc3ccc(F)cc3)cc2)CCSC(N)=N1 (stereo not shown) [Compound 267]	< 100	114 to 115 °C	–	–
CC1(c2ccc3c(c2)CCO3)CCSC(N)=N1 (stereo not shown) [Compound 1084]	< 100	146 to 149 °C	–	–
CC1(c2cccc(/C=C/C(=O)Nc3ccc(Cl)cn3)c2)CCSC(N)=N1.Cl.Cl (stereo not shown) [Compound 504]	–	209 to 219 °C	2.5	–
CC1(c2cccc(NC(=O)c3ccc(Cl)cn3)c2)CCSC(N)=N1.Cl (stereo not shown) [Compound 793]	–	269 °C (dec.)	0.061	–
CC1(c2cccc(NC(=O)c3ccc(C#N)cc3)c2)CCSC(N)=N1 (stereo not shown) [Compound 498]	–	122 to 125 °C	0.93	–
CC1(c2cccc(/C=N/OCc3cccnc3)c2)CCSC(N)=N1 (stereo not shown) [Compound 584]	< 100	152 to 153 °C	–	–
COc1ccc(OCc2cccc(C3(C)CCSC(N)=N3)c2)cc1 (stereo not shown) [Compound 502]	< 100	137 to 138 °C	–	–
CC1(c2cc(Br)cc(NC(=O)c3cc4ccccc4s3)c2)CCSC(N)=N1.Cl (stereo not shown) [Compound 1014]	–	206 to 210 °C	0.165	–
CC1(c2cccc(NC(=O)c3cnccn3)c2)CCSC(N)=N1 (stereo not shown) [Compound 164]	< 100	91 to 96 °C	–	–
COc1ccc(C2(C)N=C(N)SCC2C)cc1.Cl (stereo not shown) [Compound 8]	< 100	214 to 217 °C	–	–
CC(C)Oc1cnc(C(=O)Nc2cccc(C3(C)CCSC(N)=N3)c2)cn1 (stereo not shown) [Compound 410]	< 100	178 to 182 °C	–	–
CC1(c2ccc(Cl)cc2)CCSC(N)=N1 (stereo not shown) [Compound 1062]	< 100	136 to 137 °C	–	–
CC1(c2cccc(CO)c2)CCSC(N)=N1 (stereo not shown) [Compound 501]	< 100	155 to 156 °C	–	–
CC1(c2cccc(COc3ccccc3)c2)CCSC(N)=N1 (stereo not shown) [Compound 990]	< 100	126 to 129 °C	–	–
CC1(c2cc(Br)cc(NC(=O)c3ccc(Br)cc3)c2)CCSC(N)=N1.Cl (stereo not shown) [Compound 1262]	–	278 to 281 °C	0.14	–
CC1(c2cccc(NC(=O)c3ccc(Cl)cc3Cl)c2)CCSC(N)=N1 (stereo not shown) [Compound 625]	–	107 to 109 °C	1.29	–
